# Measured values from patent US20150291598A1 (NOVARTIS AG, priority 2012, published 2015).
# Tested on: P. falciparum (NF54 or 3D7 strain)
# Experiment: Assay for P. falciparum proliferation in infected human blood cells (SYBR Green)
# Assay type: cell-based, Plasmodium falciparum
# Details: Plasmodium falciparum, 3D7|NF54, Erythrocyte, in Homo sapiens, 72 h, NF54 or 3D7 infected human erythrocytes, 72 hours; read-out: EC50 (nM), inhibitory efficacy in delaying P. falciparum proliferation in infected human blood cells
# Method in brief: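 NF54 or 3D7 parasites in O+ human erythrocytes at 2.5% hematocrit and 0.3% parasitemia final, exposed to compounds 72 h at 37 °C under 93% N2/4% CO2/3% O2.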
row,EC50 [nM],SMILES
1,1090,Cc1ccnc(N(C)C(=O)c2cn3c(-c4ccc(C(F)(F)F)cc4)cnc3cn2)c1 [Compound 328]
2,4080,COc1ccc(-c2cnc3cnc(CN(C)c4ccc(C)cn4)cn23)cn1 [Compound 338]

# Same assay, conditions: Plasmodium falciparum, Erythrocyte, 72 h, NF54 or 3D7 infected human erythrocytes, 72 hours; read-out: EC50 (nM), inhibitory efficacy in delaying P. falciparum proliferation in infected human blood cells
row,SMILES,EC50 [nM]
1,"CN(C(=O)N1CCC(F)CC1)c1cn2c(-c3ccc(C(F)(F)F)cc3)cnc2cn1 [Compound 322, 4-fluoro-N-methyl-N-{3-[4-(trifluoromethyl)phenyl]imidazo[1,2-a]pyrazin-6-yl}piperidine-1-carboxamide]",2710
2,"CN(C(=O)c1cn2c(-c3ccc4occc4c3)cnc2cn1)c1ccc(Cl)nc1 [Compound 325, 3-(1-benzofuran-5-yl)-N-(6-chloropyridin-3-yl)-N-methylimidazo[1,2-a]pyrazine-6-carboxamide]",4140
3,"Cc1cnc(N(C)C(=O)c2cn3c(-c4ccc(C(F)(F)F)cc4)cnc3cn2)cn1 [Compound 327, N-methyl-N-(5-methylpyrazin-2-yl)-3-[4-(trifluoromethyl)phenyl]imidazo[1,2-a]pyrazine-6-carboxamide]",3310
4,"CN(C(=O)c1cn2c(-c3ccc(C(F)(F)F)cc3)cnc2cn1)c1ccnc(C(F)(F)F)c1 [Compound 329, N-methyl-3-[4-(trifluoromethyl)phenyl]-N-[2-(trifluoromethyl)pyridin-4-yl]imidazo[1,2-a]pyrazine-6-carboxamide]",2760
5,"CN(C(=O)c1cn2c(-c3ccc(-n4cccn4)cc3)cnc2cn1)c1ccc(Cl)nc1 [Compound 330, N-(6-chloropyridin-3-yl)-N-methyl-3-[4-(1H-pyrazol-1-yl)phenyl]imidazo[1,2-a]pyrazine-6-carboxamide]",1960
6,"CN(C(=O)c1cn2c(-c3ccc(C(F)(F)F)c(F)c3)cnc2cn1)c1ccc(Cl)nc1 [Compound 332, N-(6-chloropyridin-3-yl)-3-[3-fluoro-4-(trifluoromethyl)phenyl]-N-methylimidazo[1,2-a]pyrazine-6-carboxamide]",3410
7,"CCc1ccnc(NC(=O)c2cn3c(-c4ccc(C(F)(F)F)cc4)cnc3cn2)c1 [Compound 334, N-(4-ethylpyridin-2-yl)-3-[4-(trifluoromethyl)phenyl]imidazo[1,2-a]pyrazine-6-carboxamide]",> 5190
8,"COc1ccc(-c2cnc3cnc(C(=O)N(C)c4ccc(Cl)nc4)cn23)cn1 [Compound 336, N-(6-chloropyridin-3-yl)-3-(6-methoxypyridin-3-yl)-N-methylimidazo[1,2-a]pyrazine-6-carboxamide]",6930
9,"CN(C(=O)c1cn2c(-c3ccc(C(F)(F)F)cc3)cnc2cn1)c1ccc(C(F)(F)F)cn1 [Compound 337, N-methyl-3-[4-(trifluoromethyl)phenyl]-N-[5-(trifluoromethyl)pyridin-2-yl]imidazo[1,2-a]pyrazine-6-carboxamide]",> 7160
10,"CN(C(=O)c1cn2c(-c3ccc(N4CCOCC4)cc3)cnc2cn1)c1ccc(Cl)nc1 [Compound 340, N-(6-chloropyridin-3-yl)-N-methyl-3-[4-(morpholin-4-yl)phenyl]imidazo[1,2-a]pyrazine-6-carboxamide]",6850
11,"CN(C(=O)c1cn2c(-c3ccc(C(F)(F)F)cc3)cnc2cn1)c1ccc(Cl)nc1Cl [Compound 342, N-(2,6-dichloropyridin-3-yl)-N-methyl-3-[4-(trifluoromethyl)phenyl]imidazo[1,2-a]pyrazine-6-carboxamide]",393
12,"Cc1cccc(N(C)C(=O)c2cn3c(-c4ccc(C(F)(F)F)cc4)cnc3cn2)n1 [Compound 345, N-methyl-N-(6-methylpyridin-2-yl)-3-[4-(trifluoromethyl)phenyl]imidazo[1,2-a]pyrazine-6-carboxamide]",2300
13,"CN(C(=O)c1cn2c(-c3ccc(C(F)(F)F)cc3)cnc2cn1)c1ccccc1OC(F)F [Compound 346, N-[2-(difluoromethoxy)phenyl]-N-methyl-3-[4-(trifluoromethyl)phenyl]imidazo[1,2-a]pyrazine-6-carboxamide]",242
14,"CN(C(=O)c1cn2c(-c3ccc(C(F)(F)F)cc3)cnc2cn1)c1cc(C(F)(F)F)ccn1 [Compound 348, N-methyl-3-[4-(trifluoromethyl)phenyl]-N-[4-(trifluoromethyl)pyridin-2-yl]imidazo[1,2-a]pyrazine-6-carboxamide]",4690
15,"CN(C(=O)c1cn2c(-c3ccc4[nH]ncc4c3)cnc2cn1)c1ccc(Cl)nc1 [Compound 349, N-(6-chloropyridin-3-yl)-3-(1H-indazol-5-yl)-N-methylimidazo[1,2-a]pyrazine-6-carboxamide]",4680
16,"CC1(C)CN(C(=O)c2cn3c(-c4ccc(C(F)(F)F)cc4)cnc3cn2)c2ccc(C#N)cc2O1 [Compound 350, 2,2-dimethyl-4-({3-[4-(trifluoromethyl)phenyl]imidazo[1,2-a]pyrazin-6-yl}carbonyl)-3,4-dihydro-2H-1,4-benzoxazine-7-carbonitrile]",> 5630
17,"COc1ccc(N(C)C(=O)c2cn3c(-c4ccc(C(F)(F)F)cc4)cnc3cn2)nc1 [Compound 353, N-(5-methoxypyridin-2-yl)-N-methyl-3-[4-(trifluoromethyl)phenyl]imidazo[1,2-a]pyrazine-6-carboxamide]",3900
18,"CN(C(=O)c1cn2c(-c3ccc(C(F)(F)F)cc3)cnc2cn1)c1cncc(Cl)c1 [Compound 355, N-(5-chloropyridin-3-yl)-N-methyl-3-[4-(trifluoromethyl)phenyl]imidazo[1,2-a]pyrazine-6-carboxamide]",2120
19,"CN(C(=O)c1cn2c(-c3ccc(C(F)(F)F)cc3)cnc2cn1)c1nccs1 [Compound 356, N-methyl-N-(1,3-thiazol-2-yl)-3-[4-(trifluoromethyl)phenyl]imidazo[1,2-a]pyrazine-6-carboxamide]",6680
20,"CN(C)c1ccc(-c2cnc3cnc(C(=O)N(C)c4ccc(Cl)nc4)cn23)cn1 [Compound 357, N-(6-chloropyridin-3-yl)-3-[6-(dimethylamino)pyridin-3-yl]-N-methylimidazo[1,2-a]pyrazine-6-carboxamide]",5490
21,"COc1ccnc(N(C)C(=O)c2cn3c(-c4ccc(C(F)(F)F)cc4)cnc3cn2)c1 [Compound 358, -(4-methoxypyridin-2-yl)-N-methyl-3-[4-(trifluoromethyl)phenyl]imidazo[1,2-a]pyrazine-6-carboxamide]",1170

# Continued, values first:
row,EC50 [nM],SMILES
1,1230,"CN(C(=O)c1cn2c(-c3ccc(NC(C)(C)CN)cc3)cnc2cn1)c1ccc(C#N)cc1 [Compound 324, 3-{4-[(1-amino-2-methylpropan-2-yl)amino]phenyl}-N-(4-cyanophenyl)-N-methylimidazo[1,2-a]pyrazine-6-carboxamide]"
2,2090,"CN(C(=O)c1cn2c(-c3ccc(C(F)(F)F)cc3)cnc2cn1)c1cccnc1 [Compound 326, N-methyl-N-(pyridin-3-yl)-3-[4-(trifluoromethyl)phenyl]imidazo[1,2-a]pyrazine-6-carboxamide]"
3,1740,"CNC(=O)c1ccc(-c2cnc3cnc(C(=O)N(C)c4ccc(C#N)cc4)cn23)cn1 [Compound 331, 5-{6-[(4-cyanophenyl)(methyl)carbamoyl]imidazo[1,2-a]pyrazin-3-yl}-N-methylpyridine-2-carboxamide]"
4,4130,"COc1ncc(-c2cnc3cnc(C(=O)N(C)c4ccc(C#N)cc4)cn23)cn1 [Compound 333, N-(4-cyanophenyl)-3-(2-methoxypyrimidin-5-yl)-N-methylimidazo[1,2-a]pyrazine-6-carboxamide]"
5,5340,"COc1cncc(-c2cnc3cnc(C(=O)N(C)c4ccc(C#N)cc4)cn23)n1 [Compound 335, N-(4-cyanophenyl)-3-(6-methoxypyrazin-2-yl)-N-methylimidazo[1,2-a]pyrazine-6-carboxamide]"
6,1260,"Cc1noc(-c2ccc(-c3cnc4cnc(C(=O)N(C)c5ccc(C#N)cc5)cn34)cc2)n1 [Compound 339, N-(4-cyanophenyl)-N-methyl-3-[4-(3-methyl-1,2,4-oxadiazol-5-yl)phenyl]imidazo[1,2-a]pyrazine-6-carboxamide]"
7,5790,"CN(C(=O)c1cn2c(-c3ccc(C#N)cc3)c(C(F)(F)F)nc2cn1)c1ccc(C#N)cc1 [Compound 341, N,3-bis(4-cyanophenyl)-N-methyl-2-(trifluoromethyl)imidazo[1,2-a]pyrazine-6-carboxamide]"
8,6780,"CN(C(=O)c1cn2c(-c3ccc(C(=O)NC4CC4)cc3)cnc2cn1)c1ccc(Cl)nc1 [Compound 343, N-(6-chloropyridin-3-yl)-3-[4-(cyclopropylcarbamoyl)phenyl]-N-methylimidazo[1,2-a]pyrazine-6-carboxamide]"
9,2990,"CN(C)c1ncc(-c2cnc3cnc(C(=O)N(C)c4ccc(C#N)cc4)cn23)cn1 [Compound 344, N-(4-cyanophenyl)-3-[2-(dimethylamino)pyrimidin-5-yl]-N-methylimidazo[1,2-a]pyrazine-6-carboxamide]"
10,3260,"CN(c1cn2c(-c3ccc(C(F)(F)F)cc3)cnc2cn1)S(=O)(=O)c1ccc(C#N)cc1 [Compound 347, 4-cyano-N-methyl-N-{3-[4-(trifluoromethyl)phenyl]imidazo[1,2-a]pyrazin-6-yl}benzene-1-sulfonamide]"
11,5620,"CN(C(=O)c1cn2c(-c3cccc(F)n3)cnc2cn1)c1ccc(C#N)cc1 [Compound 351, N-(4-cyanophenyl)-3-(6-fluoropyridin-2-yl)-N-methylimidazo[1,2-a]pyrazine-6-carboxamide]"
12,876,"CN(C(=O)c1cn2c(-c3ccc(OC(C)(C)C(N)=O)cc3)cnc2cn1)c1ccc(C#N)cc1 [Compound 352, 3-[4-(1-carbamoyl-1-methylethoxy)phenyl]-N-(4-cyanophenyl)-N-methylimidazo[1,2-a]pyrazine-6-carboxamide]"
13,6070,"CN(C(=O)c1cn2c(-c3ncccc3Cl)cnc2cn1)c1ccc(C#N)cc1 [Compound 354, 3-(3-chloropyridin-2-yl)-N-(4-cyanophenyl)-N-methylimidazo[1,2-a]pyrazine-6-carboxamide]"
